Paper PMC8625357, “Metabolism of Selected 2-Arylbenzofurans in a Colon In Vitro Model System” (Foods, 2021)
Several values for one entry are separate records, joined by “and”; a condition that tells them apart may be missing. Equal entries are not always repeated.

What was measured:
[1] = system: THP-1 human monocytic leukemic cell line; set-up: method as in PMID 24901948; conditions: read-out: cytotoxic activity; cited from earlier work
human fecal microbiota = assay: In vitro batch fermentation with human fecal microbiota; format: in vitro ADME; set-up: final concentration after 8 h of fermentation: reference not given here; conditions: for bacterial metabolites detected: feces from three donors, 8 h
Experimental: Using a batch fermentation model of the human colon, 2-arylbenzofurans were incubated after the addition of human fecal bacteria from three donors. Samples were collected at 0, 2, 4, and 8 h and the effect of microbiota on tested 2-arylbenzofurans was determined by UHPLC/MS HRAM.
Medium was prepared from 225 mL of distilled water, 112.5 mL of macromineral solution, 56.25 μL of micromineral solution, 562.5 μL of 0.1% resazurin solution, and 1.125 g of tryptone. The macromineral solution was prepared from 7.14 g of Na2HPO4, 6.2 g of KH2PO4, 0.6 g of MgSO4, and up to 1 L of distilled water. The micromineral solution was made of 2.64 g of CaCl2, 2 g of MnCl2, CoCl2, 1.6 g of FeCl3, and up to 20 mL of distilled water. CO3 buffer was created by mixing 1 g of NH4HCO3, 8.75 g of NaHCO3, and distilled water up to 250 mL.
Phosphate buffer for fecal slurries was created by dissolving 1.77 g of KH2PO4 in 195 mL of distilled water and 3.62 g of Na2HPO4 in 305 mL of distilled water (both 1/15M). The acidity of the mixed phosphate buffer was adjusted to a neutral pH by hydrochloric acid. The reducing solution was created by mixing 125 mg of cysteine hydrochloride, 125 mg of Na2S, 0.8 mL of 1M NaOH, and distilled water up to 20 mL.
Mulberrofuran Y (1), moracin C (2), and mulberrofuran G (3) were dissolved in DMSO to a final concentration of 10 mg/mL. After boiling the fermentation medium and sodium phosphate buffer, both were cooled to 37 °C. To remove oxygen, the samples were purged with nitrogen gas (approximately 30 min). The pH of the medium was equilibrated to neutral pH using HCl. For each fermentation bottle, 17.18 mL of fermentation medium and 0.8 mL of reducing solution were transferred to create fermentation vials. Fecal slurry was prepared immediately after sampling from each donor by homogenizing the collected feces in a stomacher bag with phosphate buffer to produce a 25% fecal slurry. After filtration through the mesh, 2 mL of the filtered fecal slurry were added to each fermentation bottle. Finally, 20 μL of the tested compound or DMSO as a negative control were added. The bottles were incubated at 37 °C for 8 h with stirring at 100 strokes per minute. Aliquots of fecal suspensions were collected at 0, 2, 4, and 8 h, and stored at −80 °C until further analysis.
First, 400 μL sample of supernatant fluid were defrosted and centrifuged (5 min/15,000 RPM) and the pellet was erased. Supernatant was combined with 20 μL of ^13C6 trans-resveratrol in methanol (2 μg/mL), which was used as an internal standard. Samples were extracted 3 times with 2.5 mL of ethyl acetate and 2 mL of ultra-pure water. After liquid-liquid extraction, ethyl acetate was evaporated with nitrogen gas and redissolved in 1 mL of methanol (VWR Chemicals, Stribrna Skalice, Czech Republic) in combination with formic acid (Fisher Scientific, Merelbeke, Belgium) (1%).
(§1) The analysis was performed on an LC/MS system consisting of an Ultimate 3000 UPLC chromatograph Thermo Fisher Scientific (Waltham, MA, USA) coupled to an Impact II ultra-high resolution high mass accuracy mass spectrometer (HRAM) Q-TOF (Bruker Daltonics, Bremen, Germany) equipped with an electrospray ionization (ESI) source.
(§2) The separation was carried out on a Phenomenex F5 Kinetex column (1.7 μm 100 Å 100 × 2.1 mm) (Phenomenex, Torrance, CA, USA) by using a mobile phase consisting of 0.1% formic acid (solvent A) and methanol (solvent B). The binary gradient was run at a flow rate of 0.2 mL/min as follows: 0–3 min isocratic at 20% B, 3–6 min from 20% to 50% B, 6–15 min isocratic at 100% B, and 15–20 min isocratic at 20% B. The column oven was adjusted to 35 °C, and the injection volume was 5 μL.
For metabolite screening, the ESI source was set in both positive and negative mode. Semiquantitative analysis was performed in negative mode with the parameters listed in the Appendix A. Each compound was confirmed by MS/MS fragmentation with a collision energy voltage (20, 30, and 50 eV). […]

Caco-2 cell line = assay: Permeability and metabolism assay on Caco-2 cell line in Transwell plates; format: in vitro ADME, human; conditions: for Apical side (unchanged parent compound) / Basolateral side (unchanged parent compound) / Cells (unchanged parent compound) / Transformed (converted or metabolized): of the initial 20 μM as 100%, after 4 h; for Transformed (converted or metabolized): remainder
Experimental: as §1, §2
For metabolite screening, the ESI source was set in both positive and negative mode. Semiquantitative analysis was performed in negative mode with the parameters listed in the Appendix A. Each compound was confirmed by MS/MS fragmentation with a collision energy voltage (20, 30, and 50 eV). Data acquisition was performed using HyStar 3.2 SR4, Otof series 4.0 (Bruker Daltonics, Bremen, Germany) and Chromeleon Xpress (Thermo Fisher Scientific, Waltham, MA, USA) software and the data obtained were analyzed by using DataAnalysis 4.3. (Bruker Daltonics, Bremen, Germany). Commercially available standards of mulberrofuran Y (1), moracin C (2), and mulberrofuran G (3), each at 9 concentration levels ranging from 0.5–500 ng/mL, were used for calibration. A list of the 2-arylbenzofurans monitored in the samples is given in the Appendix B.
The Caco-2 cell lines were purchased from the American Type Tissue Collection (Rockville, MD, USA). Caco-2 cells in Transwells at passage 25 were used. More information on cell culture and passaging is described in [17].
Cells were cultured in DMEM-F12 (Dulbecco’s modified Eagles medium—Nutrient Mixture F-12) supplemented with 10% FBS (fetal bovine serum), 1% nonessential amino acids, 1% penicillin, and streptomycin, all obtained from Sigma-Aldrich (Prague, Czech Republic) in humidified air containing 5% CO2. Cells were seeded at a density of 2.6 × 10^5 cells/cm in 24-wells. The inserts were pre-filled with 50 µL of medium before seeding the cells. After seeding, the basolateral side of the chamber was filled with 1 mL of DMEM, and cells were grown in a humidified atmosphere of 5% CO2 at 37 °C. Non-adherent cells were removed by removing the medium after 6 h of incubation and replaced with 0.5 mL of fresh DMEM. The culture medium was replaced seven times a week for 21 to 25 days prior to the transport experiment.
The filter inserts containing a monolayer of the Caco-2 cell line were washed three times with HBBS (Hanks’ Balanced Salt solution) heated to 37 °C and pH 7.4. The integrity of the cell monolayer was confirmed by measuring the transepithelial electrical resistance (TEER), which had to be at least 600 Ω. After adding 25 µM lucifer yellow, the plates were incubated at 37 °C in 5% CO2 atmosphere for 1 h with shaking (150 rpm). Using a Tecan Infinite M200 reader (Excitation/Emission wavelength 480 nm/530 nm), the plates were measured. Only plates with an integrity greater than 95% were used in the following experiment.
Initially, 500 µL of 20 µM test substance solutions were added to the apical side of each insert and 1000 µL of HBSS were added to the basolateral side. At the same time, 50 µL were taken immediately from the apical side at the time point of 0 h. For future analysis, basolateral sampling times of 0.5, 1, 1.5, 2, 3, and 4 h were chosen while placing the plates in the incubator and using an orbital shaker (150 rpm). In this experiment, 500 µL of sample were always taken from the basolateral side and replaced with an equal amount of pure HBSS. After 4 h, the apical side was simultaneously removed, and the inserts were washed three times with HBSS. […]

[2] = set-up: method as in PMID 15636183; conditions: cited from earlier work
COX = system: COX; set-up: method as in PMID 3097265; conditions: cited from earlier work

SMILES | IC50 [1] [µM] | final concentration after 8 h of fermentation (human fecal microbiota; donor D1) [%] | final concentration after 8 h of fermentation (human fecal microbiota; donor D2) [%] | bacterial metabolites detected (human fecal microbiota) | Apical side (unchanged parent compound) (Caco-2 cell line) [%] | Basolateral side (unchanged parent compound) (Caco-2 cell line) [%] | Cells (unchanged parent compound) (Caco-2 cell line) [%] | Transformed (converted or metabolized) (Caco-2 cell line) [%] | further results
CC(C)=CCc1c(O)cc(-c2cc3ccc(O)cc3o2)cc1O [Moracin C (2), moracin C] | 3.2 ± 0.13 | 66 ± 3 | 87 ± 10 | No metabolites were detected | 0.7 ± 0.2 | 0 ± 0 | 8.2 ± 0.5 | 91.1 ± 0.7 | Apical side (unchanged parent compound) (Caco-2 cell line; listed as moracin C (2)): 0.7 ± 0.2%; Cells (unchanged parent compound) (Caco-2 cell line; listed as moracin C (2)): 8.2% and 8.2 ± 0.5%; Transformed (converted or metabolized) (Caco-2 cell line; listed as moracin C (2)): 91.1 ± 0.7%
CC1=CC2c3c(O)cc(-c4cc5ccc(O)cc5o4)cc3OC3(c4ccc(O)cc4O)Oc4cc(O)ccc4C(C1)C23 (centres unmarked) [Mulberrofuran G (3), mulberrofuran G] | – | – | – | No metabolites were detected | 2.7 ± 0.5 | 0 ± 0 | 14.0 ± 0.6 | 83.3 ± 1.1 | antimicrobial effects [2]: potent antimicrobial effects; concentration of parent compound after fermentation (human fecal microbiota; after 8 h, initial 10 μg/mL, in 2 donors): 5 µg/mL; concentration of parent compound, minimum (human fecal microbiota; at 2 h, initial 10 μg/mL, the one donor in which compound was stable): 9 µg/mL; concentration of parent compound after fermentation (human fecal microbiota; at 8 h, initial 10 μg/mL, the one donor in which compound was stable): 10 µg/mL; COX inhibitor (COX): inhibitor; Apical side (unchanged parent compound) (Caco-2 cell line; listed as mulberrofuran G (3)): 2.7 ± 0.5%; Basolateral side (unchanged parent compound) (Caco-2 cell line; listed as mulberrofuran G (3)): nothing; Cells (unchanged parent compound) (Caco-2 cell line; listed as mulberrofuran G (3)): 14% and 14.0 ± 0.6%; Transformed (converted or metabolized) (Caco-2 cell line; listed as mulberrofuran G (3)): 83.3 ± 1.1%
COc1c(O)cc2oc(-c3cc(O)cc(O)c3)cc2c1C/C=C(\C)CCC=C(C)C [Mulberrofuran Y (1), mulberrofuran Y] | 4.8 ± 0.19 | 25 ± 0 | 69 ± 8 | No metabolites were detected | 8.9 ± 5.9 | 0 ± 0 | 85.3 ± 19.9 | 5.8 ± 25.8 | became detectable on the basolateral side after (Caco-2 cell line; incubation time, basolateral sampling 0.5-4 h): 3 h; Apical side (unchanged parent compound) (Caco-2 cell line; listed as mulberrofuran Y (1)): 8.9 ± 5.9%; Basolateral side (unchanged parent compound) (Caco-2 cell line; listed as mulberrofuran Y (1)): no amount; Cells (unchanged parent compound) (Caco-2 cell line; listed as mulberrofuran Y (1)): 85.3% and 85.3 ± 19.9%; Transformed (converted or metabolized) (Caco-2 cell line; listed as mulberrofuran Y (1)): 5.8 ± 25.8%
